The nature of data set [1]: In vitro hydrolysis test in rabbit plasma (release of Compound A, LC/MS/MS). Type of data set: in vitro ADME. Conditions: 37° C. The method, then: The particles were retained inside articular cavity after intra-articular administration. The sustained period of active form inside articular cavity changes depending on hydrolysis period of a test compound. Therefore, the hydrolysis period of a test compound was evaluated and set as an indicator of sustained release of the active form.
Various test compounds were dissolved in dimethylsulfoxide, so that the concentration of the solution calculated in Compound A becomes 0.5 mg/mL. The solution (10 μL) was added to 0.5 mL of rabbit plasma and incubated at 37° C. in water bath. 50 μL of the solution was sampled 0, 1, 3, 8, 24, 30, 48 and 72 minutes after the incubation and the concentration of Compound A in sample was determined.
After 50 μL of the solution was sampled in a polyethylene tube, 10 μL of deuterium-labeled Compound A as internal standard and 2 mL of acetonitrile were added, followed by stirring. After centrifugation, 100 μL of the supernatant was sampled in a polyethylene tube and 900 μL of acetonitrile was added thereto, followed by stirring. After filtration, the supernatant was measured by LC/MS/MS and the 50% hydrolysis time was calculated.

Data set [2] relates to blood pressure and heart rate of normal rabbit. Description: Measurement of blood pressure and heart rate of normal rabbit. It is filed as in vivo. The conditions noted are these: for effect on circulatory system: at the dose exhibiting efficacy on the knee cartilage defect model, comparison of blood concentrations of Compound A. The method, then:
Compound A acts on circulatory system and affects on blood pressure and heart rate.
Blood pressure and heart rate were measured by the following method using female Japanese white domestic rabbit. An animal was retained in dorsal position on an operation table on a measurement day. After the hair of right femur area was removed, a local anesthetic was given by administering an appropriate amount of lidocaine injection. The skin and muscle was incised to expose femur artery and vein, and a catheter (manufactured by Atom Medical Corporation) filled with saline containing heparin (about 10 units/mL) beforehand was placed in the right femur artery.
After retaining the rabbit in a rabbit blood sampling box (manufactured by NATSUME SEISAKUSHO CO LTD.), the catheter was connected to a pressure transducer (DX-100: manufactured by NIHON KOHDEN CORPORATION) to measure blood pressure with a strain pressure amplifier (AP-641G: manufactured by NIHON KOHDEN CORPORATION) and heart rate with an instantaneous heart rate counter (AT-601G: manufactured by NIHON KOHDEN CORPORATION). Blood pressure and waveform of heartbeat were recorded by a recorder (WR3701: manufactured by Graphtech Corporation). Measurement was conducted under awake condition after confirming blood pressure and heart rate became stable.
(§1) Compound A was administered cumulatively through right auricular vein with a syringe pump (manufactured by TERUMO CORPORATION) at 0 (medium: saline), 100, 300 and 1000 ng/kg/min (administration volume: 1 mL/kg/h). Each dose was administered for more than 60 minutes and blood was collected from left auricular vein 60 minutes after the administration started. Blood was collected with a 1 mL syringe with a needle of […] treated with heparin (about 10 units/mL) beforehand. The collected blood was centrifuged at 4° C. 13,500 g for 5 minutes and the obtained supernatant (plasma) was stored at […] to be provided for the measurement of blood concentration of Compound A.
Increase or decrease ratio of mean blood pressure and heart rate at 5, 10, 15, 20, 30, 40, 50 and 60 minutes after the administration started were calculated based on the values of pre-administration of each subject. Maximum change of blood pressure and heart rate between before and after the administration of Test Compounds was evaluated.

Data set [3] concerns knee cartilage defect model. Description: Evaluation of cartilage tissue score in knee cartilage defect model. Type of data set: in vivo. Conditions: rabbit, intra-articular, bi-weekly, 6 times; vs vehicle, Steel test. The method, then:
Knee cartilage defect model was prepared by the following method. Female Japanese white domestic rabbit (2.5-3.5 kg) was anesthetized by the administration of sodium pentobarbital (30 mg/kg) through ear vein. The hair around knee articulations of both hind legs was removed and disinfected with iodine tincture. After the incision of the skin of an inert right hind leg, the boundary between patella ligament and articular capsule was incised in dorsal position. Patella was dislocated outward to expose trochlea femoris largely and medial condyle of femur was drilled with a dental drill to prepare small hole (diameter: 4 mm, depth: about 2 mm). The surgical incision was sutured and the surgical site was disinfected with iodine tincture. Femur of a left knee or both knees of pseudo-operation group was only exposed by the same operation without preparing small hole. To avoid infection disease, 100,000 units of benzylpenicilline procaine/125 mg titers of dihydrostreptomycin sulfate/I mg of procaine hydrochloride per rabbit was administered in gluteal muscle. A test compound (12-200 μg/knee, calculated in Compound A which is active form of test compounds) and its medium (5% glucose solution containing 0.05% Tween 80) were administered inside articular cavity of right knee of rabbit at bi-weekly intervals, 6 times for total, and from a week after operation. […]

Data set [4] can be described thus: Blood concentration of Compound A during continuous intravenous administration to normal rabbit. Type of data set: in vivo. Conditions: female, Japanese white, plasma, 60 minutes after administration started. The method, then:
as §1

The nature of data set [5]: Particle forming: mean particle diameter (Dv) and particle distribution (PDI) of suspensions by laser diffraction. Conditions: 5% glucose solution containing 0.05% Tween 80. Type of data set: physicochemical. The method, then: In the specification, the mean particle diameter means the mean particle diameter measured by a laser diffraction/scattering method. In the specification, the mean particle diameter is measured by a laser diffraction grain size distribution measuring apparatus (SALD-2100: manufactured by Shimadzu Corp.). In terms of mean particle diameter, various values such as volume mean diameter, surface mean diameter, median diameter and the like are used as an indicator of mean particle diameter, and in the specification, volume mean diameter (Dv) is used as a mean particle diameter.
In addition, a particle to be injected inside articular cavity is preferably a particle with a mean particle diameter with less variance and uniform size. The variance of mean particle diameter can be evaluated by measuring particle size distribution and the particle size distribution can be measured by a laser diffraction grain size distribution measuring apparatus as well as a mean particle diameter. […] In the description, PDI value and Dn was measured by a laser diffraction grain size distribution measuring apparatus (SALD-2100: manufactured by Shimadzu Corp.).
To distilled water, Compound 4-11 dissolved in ethanol was added slowly, 5% glucose solution and 5% glucose solution containing 0.05% Tween 80 with stirring. […] The quantity of each component is as follows, […]

The mark [6] stands for this setting: rabbit, intravenous, 1000 ng/kg/min.

Each structure is given as a SMILES string. Some results are limits rather than exact numbers.

For the compound `CCCCCCCCCCCCCCCOc1cccc(C(=O)OCCOC(=O)CCC/C=C\C[C@@H]2[C@@H](/C=C/C[C@H](O)C3(CC)CCC3)[C@H](O)C[C@H]2Cl)c1` [Compound 4-1, 2-{[(5Z)-7-{(1R,2R,3R,5R)-5-chloro-2-[(1E,4S)-4-(1-ethylcyclobutyl)-4-hydroxy-1-buten-1-yl]-3-hydroxycyclopentyl}-5-heptenoyl]oxy}ethyl 3-(pentadecyloxy)benzoate], in data set [1], the “Time of 50% hydrolysis” value was determined as 10.6 days. Also, the “effect on circulatory system” value in data set [2] is given as “hardly affects on circulatory system”.

In the case of `CCCCCCCCCCCCCCCOc1ccc(C(=O)OCCOC(=O)CCC/C=C\C[C@@H]2[C@@H](/C=C/C[C@H](O)C3(CC)CCC3)[C@H](O)C[C@H]2Cl)cc1` [Compound 4-11, 2-{[(5Z)-7-{(1R,2R,3R,5R)-5-chloro-2-[(1E,4S)-4-(1-ethylcyclobutyl)-4-hydroxy-1-buten-1-yl]-3-hydroxycyclopentyl}-5-heptenoyl]oxy}ethyl 4-(pentadecyloxy)benzoate], the “Time of 50% hydrolysis” value in data set [1] is 7.3 days. For the same compound, in data set [2], the “effect on circulatory system” value was “hardly affects on circulatory system”.

Consider `CCCCCCCCCCCCCCCCc1ccc(C(=O)OCCCOC(=O)CCC/C=C\C[C@@H]2[C@@H](/C=C/C[C@H](O)C3(CC)CCC3)[C@H](O)C[C@H]2Cl)cc1` [Compound 6-4, 3-{[(5Z)-7-{(1R,2R,3R,5R)-5-chloro-2-[(1E,4S)-4-(1-ethylcyclobutyl)-4-hydroxy-1-buten-1-yl]-3-hydroxycyclopentyl}-5-heptenoyl]oxy}propyl 4-hexadecylbenzoate], for which, in data set [1], the “Time of 50% hydrolysis” value is recorded as 7.8 days.

In the case of `CCCCCCCCCCCCCCCC#CCOC(=O)CCC/C=C\C[C@@H]1[C@@H](/C=C/C[C@H](O)C2(CC)CCC2)[C@H](O)C[C@H]1Cl` [Compound 19, 2-octadecyn-1-yl(5Z)-7-{(1R,2R,3R,5R)-5-chloro-2-[(1E,4S)-4-(1-ethylcyclobutyl), 4-hydroxy-1-buten-1-yl]-3-hydroxycyclopentyl}-5-heptenoate], the “Time of 50% hydrolysis” value in data set [1] amounted to 26.2 days. Further, the cartilage tissue score entry in data set [3] is “significantly improved”. Besides, the “effect on circulatory system” value in data set [2] was “hardly affects on circulatory system”.

As for `CCC(CCCCl)[C@@H](O)C/C=C/[C@@H]1[C@@H](C/C=C\CCCC(=O)O)[C@H](Cl)C[C@H]1O` (stereo partly drawn) [Compound A, (5Z)-7-{(1R,2R,3R,5R)-5-chloro-2-[(1E,4S)-4-(1-ethylchlorobutyl)-4-hydroxy-1-butenyl]-3-hydroxycyclopentyl}-5-heptenoic acid], the “blood concentration that does not affect blood pressure” value in data set [2] (rabbit) is on record as at most 5.9 ng/mL. The “blood concentration that does not affect heart rate” value in data set [2] (rabbit) is given as at most 2.0 ng/mL. Further, in data set [2] (rabbit, intravenous, 100 ng/kg/min), the “increase of heart rate at maximum” value was “about 5%”. In addition, the “increase of heart rate” value in data set [2] (rabbit, intravenous, 300 ng/kg/min) came to 15%; in data set [2] (setting [6]), 20%. Also, the “decrease of blood pressure” value in data set [2] (setting [6]) was 16 mmHg. In addition, the “decrease of blood pressure at maximum” value in data set [2] (rabbit, intravenous, 100 and 300 ng/kg/min) is listed as at most 5 mmHg. Also, the concentration at 60 min came out at 2 ng/mL in data set [4] (continuous intravenous 100 ng/kg/min), 5.9 ng/mL in data set [4] (continuous intravenous 300 ng/kg/min) and 24.3 ng/mL in data set [4] (continuous intravenous 1000 ng/kg/min).

In the case of `CCCCCCCCCCCCCCCCCC[N+](C)(C)CCOC(=O)CCC/C=C\C[C@@H]1[C@@H](/C=C/C[C@H](O)C2(CC)CCC2)[C@H](O)C[C@H]1Cl.[Br-]` [Reference Example 3, N-(2-{[(5Z)-7-{(1R,2R,3R,5R)-5-chloro-2-[(1E,4S)-4-(1-ethylcyclobutyl)-4-hydroxy-1-buten-1-yl]-3-hydroxycyclopentyl}-5-heptenoyl]oxy}ethyl)-N,N-di methyl-octadecyl ammonium bromide], the “particle forming in dispersion medium” value in data set [5] is listed as “did not form a particle”.

For the origin of these results see patent US9085523B2, “Compound for treating cartilage disorders” (ONO PHARMACEUTICAL CO., LTD., priority 2011, dated 2015).
